Measured values from patent US20090325202A1, “Methods for Developing and Assessing Therapeutic Agents” (priority 2006, published 2009).
“And” between values parts separate entries of the source, which are not always exact repeats. Identical values can stand only once. “Also recorded” adds a separate entry of the source.

Experiments:
[1] = system: ERK1/2; experiment: Phospho-/total ERK1/2 ELISA in EGF-stimulated T-47D cell smears; format: cell-based, human; conditions: T-47D cells, AG1478 0.5 uM, PD98059 20 uM
Procedure: T47D cells were maintained in Dulbecco's modified Eagle's medium (Life Technologies, Inc.) supplemented with 10% fetal calf serum and antibiotics (Life Technologies, Inc.). Prior to EGF (Sigma) stimulation, cells were starved for 24 h in serum-free medium.
(§1) Total cell lysates were obtained from either cells cultured in vitro or from tumor FNAB samples. Protein extracts were resolved by 4-15% SDS-PAGE and probed with Rabbit anti-EGFR, anti-phospbo-EGFR, anti-ERK1 and anti-phospho-ERK antibodies obtained from New England Biolabs (Beverly, Mass.). Immunoreactive proteins were visualized by enhanced chemiluminescence (Amersham International, United Kingdom). Total and phospho-ERK1/2 proteins were quantified by sandwich [LISA kits (BioSource International, Camarillo, Calif., USA) as described in the manufacturer's protocols. The reaction was read at 450 nm in an ELISA plate reader.
Western blot analysis of protein samples is a conventional method for phosphoprotein analysis. However, Western blot analysis is limited in throughput and quantitative precision, and also requires large sample amounts. […] Therefore, it was tested if quantitative ELISA assays can be applied to cytologic samples to increase the assay sensitivity to measure the expression levels and activation status of specific signaling pathways. […]

[2] = system: primary human pancreatic cancer xenograft tumors; experiment: Tumor growth (RTG) in xenograft mouse models of primary human pancreatic cancer; format: in vivo, athymic (nu+/nu+) mice
Excerpt: Four-week-old female athymic (nu+/nu+) mice were purchased from Harlan (Harlan Laboratories, Washington, D.C.). The research protocol was approved by the Johns Hopkins University Animal Care and Use Committee and animals were maintained in accordance to guidelines of the American Association of Laboratory Animal Care. Briefly, frozen pancreatic xenografts in first passage in mice, after being obtained from surgical specimens of patients undergoing pancreatic resection for adenocarcinoma at the Johns Hopkins Hospital were re-implanted subcutaneously in groups of 5 mice for each patient, with 2 small pieces per mouse (F2 generation). Tumors were allowed to grow to a size of 1.5 cm at which point they were harvested, divided into small ˜3×3×3 mm pieces, and transplanted to another 18-22 mice, with two tumors per mouse. Tumors from this second mouse-to-mouse passage were allowed to grow until reaching −200 mm^3, at which time mice were randomized in the following three treatment groups, with 6 mice in each group: control (vehicle), erlotinib (50 mg/kg/day i.p.), and temsirolimus (20 mg/kg days 1-5 i.p.). Mice were monitored daily for signs of toxicity and were weighed three times per week. Tumor size was evaluated three times per week by caliper measurements using the following formula: tumor volume=[length×width^2]/2 as previously reported (19). Relative tumor growth (RTG) was calculated by tumor growth of treated mice divided by tumor growth of control mice (T/C)×100. Experiments were terminated on day 28. Tumor response was defined as sensitive, when RTG was less than 50% on day 28.

[3] = system: ERK1/2; experiment: Ex vivo FNAB drug sensitivity assay, ERK1/2 phosphorylation by Western blot; format: cell-based, human
Procedure: Tumor cells were collected by FNAB from the xenograft animals before the start of treatment using a sterile 25G short needle. Tumor samples were immediately transferred into 10 ml sterile prewarmed complete RPMI-1640 culture medium containing 10% FBS, penicillin (200 μg/ml), and streptomycin (200 μg/ml). Cells were incubated with 0.04% trypan blue (Sigma) dissolved in PBS (9.1 mM Na2HPO4, 1.7 mM NaH2PO4, and 150 mM NaCl, pH 7.4). The viable (membrane-intact) and dead cells were then counted using Neubauer hemocytometer and the total viable cell count was used to calculate final working volumes. Approximately 25,000 viable tumor cells were seeded into each well of a 6-well polypropylene microplate. Cells were treated in duplicates with vehicle (control), erlotinib (5 μM) or temsirolimus (1 μM) in a humidified 5% CO2 incubator at 37° C. for 6 hours. No fibroblast and endothelial cell growth was observed. Following treatment, non-adherent and adherent cells (only a few, collected by scraping) were pooled together and centrifuged at 500×g for 5 min at 4° C. After washing with PBS, cells were lysed in 100 μL of ice-cold lysis buffer (50 mM Tris-HCl, 0.25M NaCl, 0.1% (v/v) Triton X-100, 1 mM EDTA, 50 mM NaF, and 0.1 mM Na3VO4, pH 7.4) containing protease and phosphatase inhibitors (Roche Molecular Biochemicals) and analyzed by Western blot.
Protein concentrations obtained from FNAB samples were quantified before each experiment. Protein extracts (15 μg) were electrophoresed on a 10% (w/v) SDS-polyacrylamide gel. After electrotransfer to Immobilon-P membranes (Millipore), membranes were blocked at room temperature using SuperBlock (Pierce) for one hour. The primary antibodies were diluted at 1:1000 in 1:10 dilution of SuperBlock solution and the membranes were incubated with primary antibodies overnight at 4° C. The antibodies tested were phospho-ERK1/2 (Cell signal #9101), phospho-S6 Ribosomal Protein (Cell Signaling Technology, Beverly, Mass.) and total ERK1/2 (Cell Signaling Technology, Beverly, Mass.) and total S6 Ribosomal Protein (Cell Signaling Technology, Beverly, Mass.). The next day, the membranes were washed and incubated for 1 h at room temperature with horseradish peroxidase (HRP)-conjugated secondary antibodies, rabbit IgG-HRP (Santa Cruz Biotechnology), or mouse IgG-HRP (Santa Cruz Biotechnology) at a final dilution of 1:3000. Antibody binding was visualized using enhanced chemiluminescence (SuperSignal West Pico, Pierce) and autoradiography.
To test if tumor cells obtained by FNAB can be used in the ex vivo assays to predict tumor response in vivo, 25,000 viable cancer cells, as determined by trypan blue dye exclusion, were treated with erlotinib or temsirolimus for six hours, after which signal pathway inhibition was analyzed by Western blot. Under these cell culture conditions no fibroblast and endothelial cell growth was detected (data not shown).
To determine whether standard clinical FNAB specimens provide adequately cellular tumor samples to perform ex vivo prediction assays, adenocarcinoma cells were collected by ultrasound or computer tomography-guided FNAB technique from pancreatic cancer patients during routine diagnostic procedures. Tumor cells were isolated by centrifugation from the needle rinse suspensions and treated with vehicle (control), erlotinib, or temsirolimus ex vivo for six hours.

[4] = system: HuCCT-1 tumors; experiment: HuCCT-1 xenograft tumor growth; format: in vivo, athymic (nu+/nu+) mice; conditions: single agents: gefitinib 150 mg/Kg i.p. days 1-5 and 8-12, CI-1040 150 mg/Kg twice a day oral days 1-14
Procedure: (§2) Four to 6-week-old female athymic (nu+/nu+) mice were purchased from Harlan (Harlan Laboratories, Washington, D.C.). The research protocol was approved by the Johns Hopkins University Animal Care Committee and animals were maintained in accordance with the guidelines of the American Association of Laboratory Animal Care. […] Mice were monitored daily for signs of toxicity and were weighed three times per week. Tumor size was evaluated three times per week by caliper measurements using the following formula: tumor volume=[length×width^2]/2. Tumor growth inhibition was calculated by tumor volume of treated mice divided by tumor volume of control mice. Experiments were terminated on day 14.
To explore the feasibility of implementing this method in in vivo studies, mouse xenografts were next employed to test whether FNAB material obtained from tumor tissue can be utilized to monitor and predict therapy response in vivo. For this purpose HuCCT-1 cholangiocarcinoma cells were used to create a xenograft mouse model of human cholangiocarcinoma. […] Tumor volumes were measured and compared with tumors from animals that received drug vehicle alone.

[5] = system: ERK1/2; experiment: HuCCT-1 xenograft tumor FNAB Western blot, ERK1/2 activity; format: in vivo, human
Procedure: as §2
Fine needle aspirates were obtained with a 25G needle and 10 ml syringe, passing the needle through the tumor 10 times with application of 1-2 ml suction The aspirated material was expressed onto clear glass slides and smeared. All smears were allowed to air dry and then stained with Diff-Quik stain (Baxter Healthcare, Miami, Fla.). Five to ten AD/DQ-stained cytological smears were prepared from each tumor sample. The cellular composition of each aspirate was assessed by cytopathologists.
as §1, with “Protein extracts were resolved by 4-15% SDS-PAGE and probed with Rabbit anti-EGFR, anti-phospbo-EGFR, anti-ERK1 and anti-phospho-ERK antibodies obtained from New England Biolabs (Beverly, Mass.).” left out
Next, whether FNAB samples obtained from tumor tissue at the early stage of therapy can be used to predict tumor response was examined. […] Expression and phosphorylation levels of ERK 1/2 were analyzed on Western blot by using extracts prepared from AD/DQ-stained FNAB samples.

[6] = system: ERK1/2; experiment: HuCCT-1 xenograft tumor FNAB phospho-/total ERK1/2 ELISA; format: in vivo, human
Procedure: as §2
as §1, with “Protein extracts were resolved by 4-15% SDS-PAGE and probed with Rabbit anti-EGFR, anti-phospbo-EGFR, anti-ERK1 and anti-phospho-ERK antibodies obtained from New England Biolabs (Beverly, Mass.).” left out
Western blot analysis of protein samples is a conventional method for phosphoprotein analysis, but is limited in throughput, quantitative precision and requires large sample amounts. ELISA assays offer alternatives to Western blot with higher throughput and increased sensitivity. […] For this purpose the tumor FNAB samples, which have been analyzed on Western blot above (FIG. 16A), were used to assess the expression and phosphorylation of ERK1/2 proteins by the total and phospho-specific ERK1/2 ELISA assays, respectively.
The amounts of phosphorylated ERK1/2 were normalized for the total contents of these proteins in each sample group and therapy-mediated changes in their phosphorylation status were quantified.

Compound: COc1cccc(-c2cc(=O)c3ccccc3o2)c1N [PD98059]
- inhibition of EGF-induced ERK1/2 phosphorylation (phospho-ELISA normalized for total ERK1/2) [1]: 50% and 60%

Compound: C#Cc1cccc(Nc2ncnc3cc(OCCOC)c(OCCOC)cc23)c1 [erlotinib]
- RTG ([2]; remaining seven tumors (all but A198), erlotinib 50 mg/kg/day i.p., day 28): greater than 50%
- tumor response ([2]; tumor A198): sensitive (Tumor response was defined as sensitive, when RTG was less than 50% on day 28)
- tumor response ([2]; tumor A265): resistant (greater than 50% RTG and were defined as resistant)
- ERK1/2 activation ex vivo ([3]; all resistant tumors of the xenograft panel, erlotinib 5 μM, 6 hours): failed to inhibit ERK1/2 activation
- ERK1/2 phosphorylation ex vivo ([3]; cancer cells from pancreatic cancer patient 1, six hours): dramatically blocked ERK1/2 phosphorylation
- phosphorylation of ERK1/2 ex vivo ([3]; cells from resistant tumor A265, erlotinib 5 μM, 6 hours): failed to inhibit ERK1/2 phosphorylation
- phosphorylation of ERK1/2 ex vivo ([3]; cells from tumor A198, erlotinib 5 μM, 6 hours): dramatic inhibition; also recorded: did show inhibition of ERK1/2; also recorded: inhibited ERK1/2 activation
- ERK1/2 activity ex vivo ([3]; tumor cells of pancreatic cancer patient 2 and 3, six hours): did not effectively block ERK1/2 activity

Compound: O=C(NOCC1CC1)c1ccc(F)c(F)c1Nc1ccc(I)cc1Cl [CI-1040]
- decrease in tumor volume [4]: 11%
- ERK1/2 activity (phospho-ERK1/2 immunoblot) ([5]; HuCCT-1 tumor FNAB samples of treated mice, gefitinib, CI-1040 alone or combined): only a slight inhibition in ERK1/2 activity
- ERK1/2 activity, serial FNAB sampling ([5]; combination: as early as 6 h after first administration, sustained for two weeks, single agents: 6 h or 5 d): neither of these agents alone caused inhibition
- phosphorylation levels of ERK1/2 by phospho-ERK1/2 ELISA (raw data) ([6]; HuCCT-1 tumor FNAB samples of treated animals): neither gefitinib nor CI-1040 treatment alone caused any significant change
- decrease of ERK1/2 phosphorylation (normalized for total ERK1/2) ([6]; HuCCT-1 tumor FNAB, CI-1040 alone): 19%
